One data set has as its target T1, Alpha1A adrenoceptor (Homo sapiens, UniProt P35348).
T1 construct: expressed in transfected cells; host or cells: CHO-K1
T1 sequence (P35348 1-466): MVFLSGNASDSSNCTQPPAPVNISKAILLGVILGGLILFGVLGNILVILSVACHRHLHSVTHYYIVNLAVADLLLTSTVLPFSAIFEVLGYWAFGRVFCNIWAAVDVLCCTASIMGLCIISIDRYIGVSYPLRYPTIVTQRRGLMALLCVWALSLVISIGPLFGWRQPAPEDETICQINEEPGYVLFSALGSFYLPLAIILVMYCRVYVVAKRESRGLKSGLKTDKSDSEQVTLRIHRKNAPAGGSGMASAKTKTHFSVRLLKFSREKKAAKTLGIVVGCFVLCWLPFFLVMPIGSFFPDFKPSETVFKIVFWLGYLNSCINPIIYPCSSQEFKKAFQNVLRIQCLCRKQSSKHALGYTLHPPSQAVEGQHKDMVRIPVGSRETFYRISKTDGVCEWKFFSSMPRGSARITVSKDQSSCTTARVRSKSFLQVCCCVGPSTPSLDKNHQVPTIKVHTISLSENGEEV
In words: [3H]prazosin binding (alpha1-adrenoceptor) assay, membranes of transfected CHO-K1 cells. The following applies: transfected CHO-K1 cell membranes, read-out: pKi alpha 1A (converted). As to the method: (§1) Example [^3H]prazosin Binding (Alpha1-Adrenoceptor) Assay
(§2) Alpha1A, alpha1B, and alpha1D adrenoceptor transfected CHO-K1 cells, prepared using the methods described by Chang et al., FEBS Lett. 1998, 422:279–283, were grown to confluence in T-162 tissue culture flasks in Ham's F-12 culture medium supplemented with 10% fetal bovine serum, geneticin (150 μg/mL) and streptomycin/penicillin (30 μg/mL/30 μg/mL) at 37° C. in 7% CO2. Cells were harvested by incubating with phosphate-buffered saline (PBS) containing 30 μM EDTA for 5–10 min at 37° C. Cells were pelleted by centrifuging at 500×g for 5 min, and the pelleted cells were homogenized (Polytron homogenizer) in 10 vols (w/v) of 50 mM Tris, 1 mM EDTA, (homogenisation buffer, pH 7.4 at 4° C.). The homogenate was centrifuged at 45,000×g for 20 min. The pellet was resuspended in the homogenizing buffer and rehomogenized. The resulting homogenate was centrifuged at 45,000×g for 20 min. The pellet was resuspended in 50 mM Tris buffer (pH 7.4 at 4° C.), aliquoted, frozen, and stored at −80° C. for further use.
(§3) The membranes were thawed at room temperature and diluted in assay buffer (50 mM Tris buffer at […]) at 37° C. and homogenized using the Polytron tissue disrupter. The membranes were incubated with the radioligand ([^3H]prazosin, NEN, 0.1–0.5 nM) and test compound at 37° C. for 30 min. The membranes were then filtered over polyethyleneimine-treated GF/B unifilter plates using a Packard Filtermate Harvester and washed with ice-cold 50 mM Tris-HCl, 1 mM EDTA buffer (3×3 sec. washes). Scintillation cocktail was added to the filter plates and bound radioligand determined by liquid scintillation spectrophotometry.
(§4) For each experiment, total binding (in the absence of any test or reference compounds) and non-specific binding (10 μM phentolamine) were determined. For each sample tested, the concentration producing 50% inhibition of binding (IC50) and Hill Slope (nH) was determined using iterative non-linear curve fitting techniques with Kaleidagraph (Synergy Software) or other appropriate software. If the radioligand KD was known, the inhibition dissociation constant (KI) of each ligand was determined according to the method of Cheng and Prusoff (Cheng, Y-C. and Prusoff, W. H., Biochem. Pharmacol., 1973, 22, 3099–3108).

A further data set has as its target T2, alpha1B adrenoceptor (Homo sapiens, UniProt P35368).
T2 construct: expressed in transfected cells; host or cells: CHO-K1
T2 sequence (P35368 1-520): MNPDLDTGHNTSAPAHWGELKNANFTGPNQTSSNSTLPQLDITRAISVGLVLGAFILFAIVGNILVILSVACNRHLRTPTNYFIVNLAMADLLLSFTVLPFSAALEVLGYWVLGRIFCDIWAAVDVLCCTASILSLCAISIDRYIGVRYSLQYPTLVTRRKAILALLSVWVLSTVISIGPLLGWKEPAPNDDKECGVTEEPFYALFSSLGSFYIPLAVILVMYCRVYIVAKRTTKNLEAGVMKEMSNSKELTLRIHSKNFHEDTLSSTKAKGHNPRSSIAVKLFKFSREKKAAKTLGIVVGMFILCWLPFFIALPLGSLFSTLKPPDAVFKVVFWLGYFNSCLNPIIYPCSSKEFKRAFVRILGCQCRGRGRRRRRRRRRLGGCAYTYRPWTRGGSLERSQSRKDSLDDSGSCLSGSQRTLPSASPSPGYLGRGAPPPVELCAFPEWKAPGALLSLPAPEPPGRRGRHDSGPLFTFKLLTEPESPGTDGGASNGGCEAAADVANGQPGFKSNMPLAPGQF
Described as above. The following applies: transfected CHO-K1 cell membranes, read-out: pKi alpha 1B (converted). The protocol:
as §1, §2, §3, §4

The next data set addresses T3, alpha1D adrenoceptor (Homo sapiens, UniProt P25100).
T3 construct: expressed in transfected cells; host or cells: CHO-K1
T3 sequence (P25100 1-572): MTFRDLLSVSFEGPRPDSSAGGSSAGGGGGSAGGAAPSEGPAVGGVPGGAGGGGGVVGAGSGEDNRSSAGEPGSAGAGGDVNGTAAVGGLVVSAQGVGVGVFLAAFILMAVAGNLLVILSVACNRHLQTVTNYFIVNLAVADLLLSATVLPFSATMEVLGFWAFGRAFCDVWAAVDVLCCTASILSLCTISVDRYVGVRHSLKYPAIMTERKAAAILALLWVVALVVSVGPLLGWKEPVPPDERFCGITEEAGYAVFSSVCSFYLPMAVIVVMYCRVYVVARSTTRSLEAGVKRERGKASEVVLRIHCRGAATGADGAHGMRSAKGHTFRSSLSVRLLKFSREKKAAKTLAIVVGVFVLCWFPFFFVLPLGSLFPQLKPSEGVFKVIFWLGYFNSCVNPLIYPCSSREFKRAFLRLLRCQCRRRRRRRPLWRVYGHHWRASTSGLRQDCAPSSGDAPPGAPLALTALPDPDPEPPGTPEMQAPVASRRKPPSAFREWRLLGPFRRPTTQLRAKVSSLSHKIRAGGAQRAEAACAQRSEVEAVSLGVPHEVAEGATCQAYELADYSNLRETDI
The description is as above. The following applies: transfected CHO-K1 cell membranes, read-out: pKi alpha 1D (converted). As to the method: as §1, §2, §3, §4

The subject of the next data set is anesthetized dog. In words: Dog in vivo intraurethral and blood pressure assay. The following applies: anesthetized male Mongrel dog, i.v. bolus, increasing doses. The protocol:
Dog In Vivo Intraurethral and Blood Pressure Assay
The following describes an in vivo assay for measuring the relative effect of test compounds on hypogastric nerve stimulation-induced increases in intraurethral pressure and phenylephrine-induced increases in diastolic blood pressure in anesthetized dog.
Male Mongrel dogs (10 to 20 kg) were fasted for 12 to 18 hours and anesthetized with phenobarbital sodium (36 mg/kg, i.v.). An endotracheal tube was inserted and thereafter the lungs were mechanically ventilated with room air. The right femoral vein was isolated and cannulated with two polyethylene cannulae, one for the administration of a continuous infusion of phenobarbital sodium (5 to 10 mg/kg/hr) and the other for bolus administration of test substances. The right femoral artery was isolated and cannulated to the abdominal aorta with a fluid filled polyethylene cannula connected to an external pressure transducer for monitoring diastolic aortic pressure (DAP). The bladder was exposed via a ventral midline abdominal incision and emptied of urine through a 22 gauge needle. The bladder was cannulated through a stab incision with a water filled balloon catheter connected to an external pressure transducer for monitoring prostatic intraurethral pressure (IUP). The right hypogastric nerve (HGN) was carefully isolated and attached to a Dastre's electrode for nerve stimulation. […]

Here are results for twelve compounds from US7244738B2, “Arylamine-substituted quinazolinone compounds useful as alpha 1A/B adrenergic receptor antagonists” (Roche Palo Alto LLC, priority 2003, dated 2007).

Counter-ions that a name gives are not always drawn.

Consider `COc1cc2[nH]c(N(C)Cc3cccc(C4=NCCO4)c3)nc(=O)c2c(OC)c1OC` [2-{[3-(4,5-dihydro-oxazol-2-yl)-benzyl]-methyl-amino}-5,6,7-trimethoxy-1H-quinazolin-4-one], for which the Ki was 813 nM at Alpha1A adrenoceptor, 14.8 nM at alpha1B adrenoceptor and 2630 nM at alpha1D adrenoceptor.
Take `COc1cc2[nH]c(N(C)Cc3cccc(CN4CCC(OC)C4)c3)nc(=O)c2c(OC)c1OC` (stereo not drawn) [5,6,7-trimethoxy-2-{[3-(3-methoxy-pyrrolidin-1-ylmethyl)-benzyl]-methyl-amino}-1H-quinazolin-4-one]: the Ki on Alpha1A adrenoceptor was 5.37 nM; at alpha1B adrenoceptor, 7.41 nM; on alpha1D adrenoceptor, 5370 nM.
Take `COc1cc2[nH]c(NCc3cccc(N=C(C)N(C)C)c3)nc(=O)c2c(C)c1OC`: the Ki at Alpha1A adrenoceptor was 7.41 nM; at alpha1B adrenoceptor, 0.891 nM; at alpha1D adrenoceptor, 69.2 nM.
The corresponding values for `COc1cc2[nH]c(N(C)Cc3ccc(OCC(O)CO)cc3)nc(=O)c2c(C)c1OC` (stereo not drawn) [2-{[4-(2,3-dihydroxy-propoxy)-benzyl]-methyl-amino}-6,7-dimethoxy-5-methyl-1H-quinazolin-4-one] are 7.08 nM, 6.92 nM and 794 nM.
As to `COc1cc2[nH]c(N(C)Cc3ccc4c(c3)CN(C)C4)nc(=O)c2c(C)c1OC` [6,7-Dimethoxy-5-methyl-2-[methyl-(2-methyl-2,3-dihydro-1H-isoindol-5-ylmethyl)-amino]-1H-quinazolin-4-one], the Ki is 3.24 nM on Alpha1A adrenoceptor, 14.8 nM at alpha1B adrenoceptor and 2630 nM at alpha1D adrenoceptor.
As for `CCN(C)Cc1ccc(CN(C)c2nc(=O)c3c(OC)c(OC)c(OC)cc3[nH]2)cc1` [2-({4-[(ethyl-methyl-amino)-methyl]-benzyl}-methyl-amino)-5,6,7-trimethoxy-1H-quinazolin-4-one], the Ki was 3.16 nM on Alpha1A adrenoceptor, 3.09 nM on alpha1B adrenoceptor and 550 nM at alpha1D adrenoceptor.
As for `COc1cc2nc(N3CCN(C(=O)c4ccco4)CC3)nc(N)c2cc1OC` [prazosin], in the data set on anesthetized dog, the “inhibition of hypogastric nerve (HGN) stimulation-induced increases in intraurethral pressure (IUP)” value is “inhibited increases in IUP and DAP in similar fashion”; the “inhibition of phenylephrine-induced increases in diastolic aortic pressure (DAP)” value is “inhibited increases in IUP and DAP in similar fashion”.
With `COc1cc2[nH]c(N(C)Cc3cccc(C(C)N(C)C)c3)nc(=O)c2c(OC)c1OC` (stereo not drawn) [2-{[3-(1-Dimethylamino-ethyl)-benzyl]-methyl-amino}-5,6,7-trimethoxy-1H-quinazolin-4-one], the Ki was 1.55 nM at Alpha1A adrenoceptor, 3.72 nM at alpha1B adrenoceptor and 141 nM at alpha1D adrenoceptor.
The melting point is the temperature of the solid-liquid transition. `COc1cc2[nH]c(N(C)Cc3cccc(NCCCO)c3)nc(=O)c2c(OC)c1OC` [Example G-18, 2-{[3-(3-Hydroxy-propylamino)-benzyl]-methyl-amino}-5,6,7-trimethoxy-1H-quinazolin-4-one] had a melting point of 47 to 48.5 °C.
With `COc1cc2[nH]c(N(C)Cc3cccc(NS(C)(=O)=O)c3)nc(=O)c2c(C(C)C)c1OC` [Example G-2, N-(3-{[(5-Isopropyl-6,7-dimethoxy-4-oxo-1,4-dihydro-quinazolin-2-yl)-methyl-amino]-methyl}-phenyl)-methanesulfonamide], the melting point lay in the range of 215 to 217 °C.
The compound `COCCCNc1cccc(CN(C)c2nc(=O)c3c(OC)c(OC)c(OC)cc3[nH]2)c1` (as salt: HCl) [Example 188, 5,6,7-Trimethoxzy-2-{[3-(3-methoxy-propylamino)-benzyl]-methyl-amino}-1H-quinazolin-4-one] displayed a melting point of 207 to 209.1 °C.
As to `CNCc1ccc(CN(C)c2nc(=O)c3c(C)c(OC)c(OC)cc3[nH]2)cc1` (as salt: HCl) [Example 55, 6,7-Dimethoxy-5-methyl-2-[methyl-(4-methylaminomethyl-benzyl)-amino]-1H-quinazolin-4-one], the melting point lay in the range of 264 to 268 °C.
